Experimental data taken from patent publication US20050014768A1, “Use of 4-oxobutanoic acid derivatives in the treatment of inflammation” (priority 2001, published 2005).

System: carrageenan-induced inflammatory oedema of the rat paw
Experiment: Test of carrageenan-induced inflammatory oedema (rat paw, plethysmometry)
Format: in vivo, Rat of Wistar type
Conditions: for V oedema: difference in paw volume before and three hours after carrageenan, one hour before carrageenan; for Reduction in oedema: versus controls, three hours after carrageenan
Method: The compounds of the formula (I) were subjected to biological tests designed to reveal their anti-inflammatory activity. The in vivo activity of the compounds of the formula (I) was studied in an experimental model of inflammation in rats. Inflammatory oedema of the rat paw is induced by intradermal injection of carrageenan (1% V/V) into the hind paw of the rat. This oedema is measured by plethysmometry according to the method of Winter C. A. et al. (Proc. Soc. Exp. Biol. Med.; (1962); 111; 544-547). The substances with an anti-inflammatory effect bring about a reduction in the oedema thus created. Indomethacin is used as anti-inflammatory reference in the test.
Animal model: Rat of Wistar type
Anti-inflammatory reference: indomethacin from the company Sigma
Control: 0.5% methylcellulose hydrogel.
After fasting for one day, the volume of the right hind paw is measured [V paw]. The test compounds, the reference and the control are administered orally in a volume of 10 ml/kg. One hour after administration, oedema is induced by an intraplantar injection of 50 microlitres of carrageenan (1%, VN) hydrogel into the right hind paw. The volume of this paw is measured three hours after inducing the oedema. The intensity of the oedema [V oedema] is evaluated by the difference in the volume of the paw, before and three hours after the injection of carrageenan.

SMILES	V oedema (oral, dose not given) [mL]	Reduction in oedema (oral, dose not given) [%]	V oedema (oral 30 mg) [mL]	V oedema (oral 100 mg) [mL]	V oedema (oral 300 mg) [mL]	Reduction in oedema (oral 30 mg) [%]	Reduction in oedema (oral 100 mg) [%]	Reduction in oedema (oral 300 mg) [%]
COc1ccc2c(c1)c(CC(=O)O)c(C)n2C(=O)c1ccc(Cl)cc1 [Indomethacin, indomethacin, reference compound]	0.20	−67	–	–	–	–	–	–
O=C(CC(Cc1ccccc1)C(=O)O)c1ccc(F)cc1 (single isomer, unassigned; (-)) [P, (−)-2-benzyl-4-(4-fluorophenyl)-4-oxobutanoic acid]	–	–	0.42	0.11	0.17	−32	−83	−73
